In patent US6891062B2, “Pharmaceutical composition for treatment of diseases associated with decrease in bone mass” (Ono Pharmaceutical Co., Ltd., priority 1999, dated 2005):

Test system: Beagle/CSK strain dogs
Assay: Promoting action on bone formation: determination of bone area of femur
Assay type: in vivo, dog
Conditions: for bone area: dog femur, 4 weeks
From the text: Beagle/CSK strain dogs of 6-month old were used (n=3 to 6 per group). Into a physical saline solution, each (11 α, 15 α, 13E)-9-oxo-11,15-dihydroxy-16-(3-methoxymethylphenyl)-17,18,19,20-tetranor-5-t hiaprost-13-enoic acid methyl ester (methyl ester of a compound of the formula (IE)) α-cyclodextrin clathrate (containing rate of an active ingredient in α-cyclodextrin clathrate form is 25% w/w), (11 α, 15 α, 13E)-9-oxo-11,15-dihydroxy-16-(3-methoxymethylphenyl)-17,18,19,20-tetranor-3,7-dithiaprost-13-enoic acid (a compound of the formula (IF)), (9β, 11 α, 15 α, 5Z, 13E)-9-chloro-11,15-dihydroxy-16-(3-ethoxymethylphenyl)-17,18,19,20-tetranorpro st-5,13-dienoic acid (a compound of the formula (IG)), (11 α, 15 α, 13E)-9-oxo-11,15-dihydroxy-16-(3-methoxymethylphenyl)-17,18,19,20-tetranorpro st-13-enoic acid (methyl ester of a compound of the formula (IH)), and (11 α, 15 α, 5Z, 13E)-9-oxo-11,15-dihydroxy-16-(3-ethoxymethylphenyl)-17,18,19,20-tetranorprost-5,13-dienoic acid (a compound of the formula (IJ)) was dissolved, and administered continuously to each animal at the effective doses of 2, 5, 10 and 25 μg/kg/day, for 24 hours per day during 4 weeks. Each test solution was administered into femoral vein through holding-catheter at the rate of 0.2 ml/kg/hour. An equal volume of physical saline solution was administered into an animal of the control group. After termination of administration, each animal was sacrificed to carry out autopsy. The separated femur was fixed with 10% buffered formalin solution and then was cut into a round slice with the width of 10 mm vertically to longitudinal axis at the 25 mm central side from trochlea sulcus. Pictures of bone surface near side of epiphysis were taken with camera connected to the computer from the constant distance, and then the resulted digital image was analyzed to determine bone area.

[1] = 5 μg/kg/day continuous into femoral vein

Structure (SMILES)	bone area [1] [mm^2]	bone area (10 μg/kg/day continuous into femoral vein) [mm^2]	bone area (25 μg/kg/day continuous into femoral vein) [mm^2]	increase of bone area compared with Untreated Group (dog, 25 μg/kg/day) [fold]
COCc1cccc(C[C@H](O)/C=C/[C@H]2[C@H](O)CC(=O)[C@@H]2CCCCCCC(=O)O)c1 [Invention compound (IH), (11 α, 15 α, 13E)-9-oxo-11,15-dihydroxy-16-(3-methoxymethylphenyl)-17,18,19,20-tetranorpro st-13-enoic acid]	362.99 ± 89.56	–	–	–
COCc1cccc(C[C@H](O)/C=C/[C@H]2[C@H](O)CC(=O)[C@@H]2SCCCSCC(=O)O)c1 [Invention compound (IF), (11 α, 15 α, 13E)-9-oxo-11,15-dihydroxy-16-(3-methoxymethylphenyl)-17,18,19,20-tetranor-3,7-dithiaprost-13-enoic acid]	365.29 ± 73.63	–	–	–
CCOCc1cccc(C[C@H](O)/C=C/[C@@H]2[C@@H](C/C=C\CCCC(=O)O)[C@H](Cl)C[C@H]2O)c1 [Invention compound (IG), (9β, 11 α, 15 α, 5Z, 13E)-9-chloro-11,15-dihydroxy-16-(3-ethoxymethylphenyl)-17,18,19,20-tetranorpro st-5,13-dienoic acid]	–	140.10 ± 28.08	289.38 ± 120.50	4.2
CCOCc1cccc(C[C@H](O)/C=C/[C@H]2[C@H](O)CC(=O)[C@@H]2C/C=C\CCCC(=O)O)c1 [Invention compound (IJ), (11 α, 15 α, 5Z, 13E)-9-oxo-11,15-dihydroxy-16-(3-ethoxymethylphenyl)-17,18,19,20-tetranorprost-5,13-dienoic acid]	193.23 ± 11.32	–	–	–
